Experimental findings from patent US11066409B2, “Bicyclic nitrogen-containing heterocyclic derivatives and pharmaceutical composition comprising the same” (Shionogi & Co., Ltd., priority 2016, dated 2021) are described below.

Series [1] concerns partial sciatic nerve ligation model in rats. Briefly: Analgesic effect in a Seltzer model (partial sciatic nerve ligation), mechanical allodynia by von Frey filaments. The series is classed as in vivo. The note with it: 1 h, rat, oral, reversal of mechanical allodynia, approximately 1 to 5 hours after administration. The text has this:
Preparation of Partial Sciatic Nerve Ligation Model in Rats
Rats were anaesthetized using isoflurane/O2 inhalation anaesthesia. After induction of anesthesia, the left thigh was shaved. An incision was made in the skin just below the hip bone. The muscle was bluntly dissected to expose the sciatic nerve. About one half (½) of the sciatic nerve thickness was tightly ligated with a nylon thread and the wound was closed. The right thigh was used as a sham-operated control. The right thigh underwent an identical procedure with the left hind limb, however, the sciatic nerve was not manipulated or ligated.
Two weeks after nerve ligation, the effect on mechanical allodynia was assessed using a series of von Frey filaments. For habituation, the rats were placed into a plastic cage on a wire mesh bottom. Von Frey filaments (0.4 to 26 g) were applied to the plantar surface of the rat hind paws from the wire mesh side, and the value of the filament pressure at which the paw was withdrawn was used as a pain threshold. The measurement of mechanical sensitivity of the right and left hind paws was performed to obtain predose mechanical sensitivity. The rats showing the threshold change from 0.6 to 2 g (in nerve ligated side) and 8 to 15 g (in sham operated side) were used in the experiments. On the day before the experiment, the rats were evaluated with a series of von Frey filaments to familiarize them with the test procedure. The adopted animal was administrated with the compounds of the present invention. The compounds of the present invention were homogenized with mortar and pestle and suspended or diluted in 0.5% Methyl Cellulose to prepare 0.03-100 mg/2 mL/kg suspension and orally administered to rat using a syringe attached with a sonde. Post-dose mechanical sensitivities of the right and left hind paws were measured at approximately 1 to 5 hours after drug administration. Percent reversal of mechanical allodynia for each rat was calculated using the following formula. The analgesic effects of the compounds were compared.

Another series addresses human P2X7 receptor (Homo sapiens (Human), UniProt Q99572, R270H). The series is described as follows: Evaluation of a human P2X7 receptor inhibitory activity (Yo-Pro uptake, BzATP stimulation, FLIPR TETRA). The note with it: 1321N1 cells stably expressing human P2X7 receptor, Yo-Pro fluorescence. The series is classed as cell-based. A digest of the protocol: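 1321N1 cells stably expressing human P2X7 (T606C/G952A SNP variant) in HBSS/HEPES pH 7.4–7.5 were loaded with Yo-Pro and stimulated with BzATP on FLIPR TETRA. Compound was added 8 min later and fluorescence followed for 20 min. Inhibition scaled between no-compound (0%) and reference compound (100%); IC50 by logistic fit, reported in bins A–D.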

The next series addresses human PXR (Homo sapiens (Human), UniProt O75469). Briefly: Evaluation of activation of human pregnane X receptor (PXR), DPX2 cells. The note with it: 48 hours, emission intensity divided by fluorescence intensity; for PXR 10 μM: compound 10 μM; for PXR 50 μM: compound 50 μM. The series is classed as cell-based. As for the experimental part:
A Human PXR activation (Puracyp, Inc.) kit was used for evaluation.
DPX2 cells expressing human PXR were seeded in a 96-well plate at a concentration of 40000 cells/well and cultured at 37° C. under 5% carbon dioxide for 24 hours (medium: culture medium for DPX2 cells containing 10% fetal bovine serum, antibiotics, sodium pyruvate, D-glucose, and phenol red). After culture for 24 hours, a DMSO solution of the compound of the present invention was diluted with a medium (dosing medium for DPX2 cells containing 10% fetal bovine serum, D-glucose, antibiotics, sodium pyruvate, and L-glutamine) so that the final concentration was 10 and 50 μM, and a rifampicin DMSO solution as a positive control drug was 0.2, 1, 2, and 20 μM. The medium was removed from the 96-well plate after culture for 24 hours. 100 μL of the solution of the compound of the present invention and 100 μL of the rifampicin solution prepared were added to each well, and cultured for 48 hours. The medium was removed from the 96-well plate after culture for 48 hours. 100 μL of each reaction mixture obtained by adding 5.25 μL of CellTiter-Fluor to 10.5 mL of TubeE was filled therein. The plate was set in a plate reader (PerkinElmer, Inc.) after culture for 1 hour to measure the fluorescence intensity at an interval of 0.1 seconds per well. The plate was taken out. 100 μL of a solution obtained by adding ONE-Glo Assay Substrate to ONE-Glo Assaybuffer was added to each well. After 2 minutes from the addition of the solution, the plate was set in the plate reader to measure the […] at an interval of 2 seconds per well. The PXR activity of the product of the present invention was a value obtained by dividing the emission intensity by the fluorescence intensity.

Sequence of human PXR (O75469 whole entry): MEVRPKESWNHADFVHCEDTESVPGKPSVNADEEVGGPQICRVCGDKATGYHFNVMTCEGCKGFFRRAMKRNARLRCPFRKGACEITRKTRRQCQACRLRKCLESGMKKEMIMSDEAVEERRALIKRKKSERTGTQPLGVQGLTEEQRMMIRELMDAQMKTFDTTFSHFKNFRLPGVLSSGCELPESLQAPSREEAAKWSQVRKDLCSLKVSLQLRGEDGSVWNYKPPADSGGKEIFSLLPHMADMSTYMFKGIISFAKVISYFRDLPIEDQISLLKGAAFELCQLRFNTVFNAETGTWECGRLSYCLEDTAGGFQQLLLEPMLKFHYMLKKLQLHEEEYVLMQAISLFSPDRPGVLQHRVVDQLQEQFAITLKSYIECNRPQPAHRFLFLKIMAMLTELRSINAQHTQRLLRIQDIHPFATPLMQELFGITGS
Sequence of human P2X7 receptor (Q99572 whole entry R270H): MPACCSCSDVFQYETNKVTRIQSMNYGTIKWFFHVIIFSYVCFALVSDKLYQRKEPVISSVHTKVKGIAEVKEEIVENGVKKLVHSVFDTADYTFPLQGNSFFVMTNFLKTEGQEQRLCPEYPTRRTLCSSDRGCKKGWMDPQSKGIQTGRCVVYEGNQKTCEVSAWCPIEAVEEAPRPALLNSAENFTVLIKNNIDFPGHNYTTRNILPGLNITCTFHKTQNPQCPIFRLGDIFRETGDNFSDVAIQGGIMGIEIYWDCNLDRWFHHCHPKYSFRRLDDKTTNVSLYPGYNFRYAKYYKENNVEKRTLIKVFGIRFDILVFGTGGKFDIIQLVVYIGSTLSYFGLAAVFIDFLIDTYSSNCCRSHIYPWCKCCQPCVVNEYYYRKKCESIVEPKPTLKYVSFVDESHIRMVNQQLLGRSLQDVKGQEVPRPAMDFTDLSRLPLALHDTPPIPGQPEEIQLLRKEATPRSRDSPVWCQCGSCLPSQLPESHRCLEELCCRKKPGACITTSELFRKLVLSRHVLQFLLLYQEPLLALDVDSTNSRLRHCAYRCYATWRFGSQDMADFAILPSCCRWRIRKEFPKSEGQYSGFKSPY

As for `Cc1cc2c(cc1Nc1nc(=O)c(F)c3n1C(c1cc(F)cc(F)c1)CC3)COC2` (centres unmarked) [Compound I-0102], in series [1], the inhibition in vivo – broadly, the change of the read-out against control, counted positive when it falls – at 3 mg/kg came out at 55%. Also, it took 11 nM to reach half-maximal inhibition at human P2X7 receptor (IC50).
For the compound `COc1ccc(NC2=NC(=O)N(C)C3=NCC(c4cc(F)c(F)c(F)c4)N23)c(C)c1` (centres unmarked) [Compound I-0135], on human PXR, the “PXR 10 μM” value came to 3 and the “PXR 50 μM” value is reported as 9. Moreover, in series [1], the inhibition in vivo at 3 mg/kg is 52%. For the same compound, the IC50 (commonly the concentration that inhibits the measured activity by half) on human P2X7 receptor (class symbols) fell in the range of 10 to 100 nM.
On to `COc1ccc(C)c(NC2=NC(=O)N(C)C3=NCC(c4cc(F)c(F)c(F)c4)N23)c1` (centres unmarked) [Compound I-0142], for which, at human PXR, the “PXR 10 μM” value is recorded as 5.8 and the “PXR 50 μM” value is recorded as 13. On human P2X7 receptor (class symbols), this compound yielded an IC50 of 10 to 100 nM.
As to `Cc1ccc(C#N)cc1NC1=NC(=O)N(C)C2=NCC(c3cc(F)c(F)c(F)c3)N12` (centres unmarked) [Compound I-0145], the “PXR 10 μM” value on human PXR is listed as 1.9. Also, the “PXR 50 μM” value at human PXR worked out at 6.2. The inhibition in vivo at 1 mg/kg in series [1] stood at 58%. Further, the figures for the IC50 against human P2X7 receptor and at human P2X7 receptor (class symbols) were 19 nM and 10 to 100 nM, respectively.
For the compound `COc1ccc(NC2=NC(=O)N(C)C3=NCC(c4cc(F)c(F)c(F)c4)N23)c(C)c1F` (centres unmarked) [Compound I-0147], in series [1], the inhibition in vivo at 1 mg/kg stood at 33%. Also, the concentration for half-maximal inhibition (IC50) at human P2X7 receptor was 24 nM; against human P2X7 receptor (class symbols), 10 to 100 nM.
Turning to `COc1cc(NC2=NC(=O)N(C)C3=NCC(c4cc(F)c(F)c(F)c4)N23)c(C)cc1F` (centres unmarked) [Compound I-0149], in series [1], the inhibition in vivo at 1 mg/kg was 41%. In addition, 21 nM corresponded to half-maximal inhibition against human P2X7 receptor (IC50).
In the case of `CCc1nc(OC)ccc1NC1=NC(=O)N(C)C2=NCC(c3cc(F)c(F)c(F)c3)N12` (centres unmarked) [Compound I-0154], on human PXR, the “PXR 10 μM” value is reported as 7.9 and the “PXR 50 μM” value is reported as 15.8. Moreover, the inhibition in vivo at 1 mg/kg in series [1] was 44%. Also, the midpoint of inhibition at human P2X7 receptor, the IC50, lay at 17 nM.
The matching figures for `COCCOc1ccc(C)c(NC2=NC(=O)N(C)C3=NCC(c4cc(F)c(F)c(F)c4)N23)c1` (centres unmarked) [Compound I-0158]: 1.2, 4.7, 47% and 27 nM.
In the same order, the values of `Cc1ccc(CO)cc1NC1=NC(=O)N(C)C2=NCC(c3cc(F)c(F)c(F)c3)N12` (centres unmarked) [Compound I-0161] are 1.2, 2.5, 51% and 19 nM.
As for `COc1nc(C)c(NC2=NC(=O)N(C)C3=NCC(c4cc(F)c(F)c(F)c4)N23)cc1F` (centres unmarked) [Compound I-0162], on human PXR, the “PXR 10 μM” value was found to be 6.7 and the “PXR 50 μM” value was 20. In addition, on human P2X7 receptor, the IC50 was 19 nM.
On to `Cc1cc2c(cc1NC1=NC(=O)N(C)C3=NCC(c4cc(F)c(F)c(F)c4)N13)COC2` (centres unmarked) [Compound I-0164], for which, at human PXR, the “PXR 10 μM” value was 10.6 and the “PXR 50 μM” value came out at 25. In addition, the inhibition in vivo at 1 mg/kg in series [1] was determined as 47%. Moreover, on human P2X7 receptor, the IC50 came out at 28 nM.
In the case of `Cc1cc(F)c(CO)cc1NC1=NC(=O)N(C)C2=NCC(c3cc(F)c(F)c(F)c3)N12` (centres unmarked) [Compound I-0168], on human PXR, the “PXR 10 μM” value is given as 0.9 and the “PXR 50 μM” value is 1.7. The inhibition in vivo at 1 mg/kg in series [1] turned out to be 53%.
In the same order, the values of `Cc1ccc(OCCO)cc1NC1=NC(=O)N(C)C2=NCC(c3cc(F)c(F)c(F)c3)N12` (centres unmarked) [Compound I-0171] are 1.2, 2.5 and 52%.
For the compound `CCc1ccc(CO)cc1NC1=NC(=O)N(C)C2=NCC(c3cc(F)c(F)c(F)c3)N12` (centres unmarked) [Compound I-0176], on human PXR, the “PXR 10 μM” value is 1.1 and the “PXR 50 μM” value was 2. Further, at human P2X7 receptor, the midpoint of inhibition, the IC50, lay at 20 nM.
`CN1C(=O)N=C(NCc2ccccc2)N2C1=NCC2c1cc(F)c(F)c(F)c1` (centres unmarked) [Compound I-0188]: on human PXR, the “PXR 10 μM” value worked out at 1.3 and the “PXR 50 μM” value worked out at 3.5. In addition, the IC50 on human P2X7 receptor is 7.6 nM.
As for `Cc1ccc(OC(F)F)cc1NC1=NC(=O)N(C)C2=NCC(c3cc(F)c(F)c(F)c3)N12` (centres unmarked) [Compound I-0192], at human PXR, the “PXR 10 μM” value amounted to 7.9 and the “PXR 50 μM” value worked out at 15. Further, in series [1], the inhibition in vivo at 1 mg/kg came to 50%. The compound further had an IC50 at human P2X7 receptor of 18 nM.
In the same order, the values of `COCc1ccc(C)c(NC2=NC(=O)N(C)C3=NCC(c4cc(F)c(F)c(F)c4)N23)c1` (centres unmarked) [Compound I-0201] are 4, 13.5, 51% and 26 nM.
In the case of `COCC(F)(F)c1ccc(C)c(NC2=NC(=O)N(C)C3=NCC(c4cc(F)c(F)c(F)c4)N23)c1` (centres unmarked) [Compound I-0205], the IC50 at human P2X7 receptor (class symbols) lay in the range of 10 to 100 nM.
The same measure, in the same setting: for `Cc1ccc(C(F)(F)CO)cc1NC1=NC(=O)N(C)C2=NCC(c3cc(F)c(F)c(F)c3)N12` (centres unmarked) [Compound I-0206] the value was 10 to 100 nM; for `COc1ccc([C@@H](C)NC2=NC(=O)N(C)C3=NCC(c4cc(F)c(F)c(F)c4)N23)cc1` (some centres unmarked) [Compound I-0207], 100 to 500 nM; for `Cc1cc(C#N)ccc1NC1=NC(=O)N(C)C2=NCC(c3cc(F)c(F)c(F)c3)N12` (centres unmarked) [Compound I-0208], 10 to 100 nM.
Same read-out and setting: for `COc1cc(NC2=NC(=O)N(C)C3=NCC(c4cc(F)c(F)c(F)c4)N23)c(C)cc1C#N` (centres unmarked) [Compound I-0209] the value was 10 to 100 nM; for `CN1C(=O)N=C(Nc2cc(C#N)ccc2F)N2C1=NCC2c1cc(F)c(F)c(F)c1` (centres unmarked) [Compound I-0210], 10 to 100 nM.
On the same count and under the same terms, for `Cc1cc(F)c(C#N)cc1NC1=NC(=O)N(C)C2=NCC(c3cc(F)c(F)c(F)c3)N12` (centres unmarked) [Compound I-0211] the value was 10 to 100 nM; for `Cc1c(F)cc(C#N)cc1NC1=NC(=O)N(C)C2=NCC(c3cc(F)c(F)c(F)c3)N12` (centres unmarked) [Compound I-0212], 10 to 100 nM.
Regarding `Cc1ccc(C2=NCCO2)cc1NC1=NC(=O)N(C)C2=NCC(c3cc(F)c(F)c(F)c3)N12` (centres unmarked) [Compound I-0213], the IC50 on human P2X7 receptor (class symbols) lay within 10 to 100 nM.
On the same count and under the same terms, for `Cc1cc(F)c(C2=NCCO2)cc1NC1=NC(=O)N(C)C2=NCC(c3cc(F)c(F)c(F)c3)N12` (centres unmarked) [Compound I-0214] the value was 10 to 100 nM.
